Entries after “also recorded” stand apart in the source; their conditions may differ.
What was measured:
[1] = test system: mutants rms1 (line M3T-884 from wild pea WT Térèse); assay: Comparison of GR24, molecule ABC and sorgolactone by local application onto buds at node 4; format: in vivo; conditions: mutant rms1; 100 nM and 500 nM, 10 μl per bud; nine days after the treatment; FIG. 3
Method: A second experiment is carried out on mutants rms1 (line M3T-884 from wild pea WT Térèse) in order to compare on these mutants the effect of synthetic strigolactone GR24, of a synthetic molecule ABC from GR24, without any cycle D characteristic of strigolactone, and Sorgolactone, a natural strigolactone.
The plants used are obtained in the same manner as for the plants used in the first experiment.
The solution containing synthetic strigolactone GR24 at 0 nM, 100 nM and 500 nM (4% PEG 1450, 10% ethanol) is applied with the help of a micropipette onto the buds at the node 4 (N4), at the rate of 10 μl per bud.
(§1) The buds and/or ramifications at the first two plant nodes N1 and N2 are cut at the time of the treatment.
The size of the buds at the upper nodes (node N4) is measured nine days after the treatment. The results of the bud growth are illustrated in the chart in FIG. 3.

[2] = test system: mutants rms1 (line WL5237 from WT Térèse); assay: Decapitation after treatment of buds at node 3; format: in vivo, pea; conditions: 1000 nM, two applications, decapitated nine days after the treatment, measured seven days after decapitation, FIG. 7B
Method: A first experiment is carried out simultaneously on wild peas (line WT Parvus) and mutants rms1 (line WL5237 from […]). In this experiment, 18 seeds are used for each treatment, which are sowed in pots (2 plants per pot with a diameter of 15 cm) in a soil mixed with sand. The seedling is carried out under glass with natural light and with an extension of the light period of 18 h light/6 h night be means of incandescent bulbs (60 W).
In a first stage, the plants are treated by two successive applications, separated by a 24 hour interval, of a solution (2% PEG 3550, 50% ethanol) containing synthetic strigolactone GR24 at 0 nM or 1000 nM. The solution is applied with the help of a micropipette onto the buds at the node 3 (N3), at the rate of 10 μl per bud.
as §1
The size of the treated buds is measured seven days after the treatment. The chart in FIG. 7A illustrates the results obtained with the buds at the N3.
In a second stage, a first half of the treated mutant plants rms1 are decapitated just above the node 3, nine days after the treatment, the second half is left intact. The buds and/or ramifications at node 3 of the treated plants at 0 nM (which have not been repressed) are cut.
The bud size is measured seven days after the decapitation. […]

[3] = test system: mutants rms1 (line M3T-884 from wild pea WT Térèse); assay: Local application of strigolactone onto axillary buds at node 4, bud growth; format: in vivo; conditions: mutant rms1; 100 nM, 10 μl per bud; eight days after the treatment; FIG. 2
Method: (§2) A first experiment is carried out simultaneously on mutants rms1 (line M3T-884 from wild pea WT Térèse) and rms4 (line M3T-946 from wild pea WT Térèse).
(§3) 9 seeds are used for each treatment; they are sowed in pots (3 plants per pot) in soil mixed to clay balls. The seedling is carried out under glass with a light period of 16 h light/8 h night.
(§4) The treatment is carried out 10 days after the seedling (Stage with 4 leaves).
(§5) A solution containing synthetic strigolactone GR24 dissolved in acetone at 0 nM and 100 nM (4% PEG 1450, 25% ethanol, 5^0/00 acetone) is applied with the help of a micropipette onto the buds at the node 4 (N4), at the rate of 10 μl per bud.
(§6) The buds and/or ramifications at the first two plant nodes N1 and N2 are cut for favoring the start of the buds at upper nodes.
(§7) The untreated plants correspond to the plants the buds and/or ramifications of which at nodes 1 and 2 have been cut but which have not received any treatment. The control “0 nM” corresponds to the plants treated with the same solution as for the treatment “500 nM” but without any strigolactones.

[4] = test system: mutants rms4 (line M3T-946 from wild pea WT Térèse); assay: as above; format: in vivo; conditions: mutant rms4; 100 nM, 10 μl per bud; eight days after the treatment; FIG. 2
Method: as §2, §3, §4, §5, §6, §7

wild peas WT Térèse = assay: Local application onto buds at node 2 of wild pea; format: in vivo; conditions: 500 nM, 10 μl per bud, eight days after the treatment, FIG. 4
Method: To this end, a third experiment is carried out on wild peas WT Térèse. The plants used are obtained in a identical manner as for the plants used in the first experiment.
The treatment is carried out 10 days after the seedling (stage with 4 to 5 leaves).
A solution containing synthetic strigolactone GR24 at 0 nM and 500 nM (4% PEG, 10% ethanol) is applied with the help of a micropipette onto the buds at the node 2 (N2), at the rate of 10 μl per bud.
The buds and/or ramifications at the first plant node N1 are cut at the time of the treatment.
The bud size at the node N2 is measured eight days after the treatment, the results being plotted in the chart in FIG. 4.

[5] = test system: mutants rms1 (line WL5237 from wild pea WT Parvus); assay: Local application onto buds at node 3 of plants of different ages; format: in vivo; conditions: 1000 nM applied on two days, 9 to 13 day-old plants, buds 0.2 to 1 mm at first treatment, three and seven days after, FIG. 5A
Method: A first experiment is carried out on mutants rms1 (line WL5237 from wild pea WT Parvus) in order to compare the effect of synthetic strigolactones GR24 on the size of the treated buds at the time of the treatment.
In this experiment, 20 seeds are used for each treatment, which are sowed in pots (2 plants per pot with a diameter of 15 cm) in a soil mixed to clay balls. The seedling is carried out under glass with a natural light and with an extension of the light period of 18 h light/6 h night by means of incandescent bulbs (60 W).
On the first day of treatment, a solution containing synthetic strigolactone GR24 at 0 nM and 1000 nM (4% PEG 1450, 10% ethanol) is applied with the help of a micropipette onto the buds at the node 3 (N3), at the rate of 10 μl per bud.
On the second day of treatment, a solution containing synthetic strigolactone GR24 at 0 nM and 1000 nM (4% PEG 1450, 10% ethanol) is applied with the help of a micropipette onto the same buds, at the rate of 10 μl per bud.
as §1
The first treatment is carried out on 9, 10, 11, 12 and 13 day-old plants (the seedling were spread out over five days).
The bud size at the node N3 is measured the day of the first treatment (J0) and three and seven days afterwards. The obtained results are illustrated in the charts in FIG. 5A.

[6] = test system: mutants rms1 (line M3T-988 from WT Térèse); assay: Injection into the stem above node N3, size of bud at N5 (long-distance, dose-response); format: in vivo, pea; conditions: rms1 M3T-988; injected 1, 10, 100, 500 nM; eight days after the treatment; FIG. 6
Method: To this end, an experiment is carried out on mutants rms1 (line M3T-988 from WT Térèse) obtained in the same manner as for the mutants used in the preceding experiments.
The plants are treated by injecting the solution into the stem above the node N3. More precisely, a cotton thread is introduced into the plant stem with the help of needle and is dipped into the solution to be tested. The GR24 solution used (0 nM, 1 nM, 10 nM, 100 nM and 500 nM) were prepared by diluting in water GR24 solutions kept in acetone at different concentrations so that they have the same volume of acetone (10 μl of acetone in 20 ml of water).
as §1
The “untreated” plants correspond to control plants the ramifications N1 and N2 of which have been cut, but which have not received any injection.
The size of the buds at the node situated a distance above the injection zone (N5) is measured eight days after the treatment.

[7] = test system: wild pea (line WT Térèse) and mutant pea (line M3T-988 ccd8/rms1 from WT Térèse); assay: Application through the roots in hydroponic solution, internodal length and ramification length; format: in vivo
Method: To this end, an experiment is carried out in a hydroponic solution in order to bring GR24 into the hydroponic solution through the roots.
In this experiment, wild pea seeds (line WT Térèse) and mutant pea seeds (line M3T-988 ccd8/rms1 from WT Térèse) are first sowed in sand. Eight days later, the resulting plants are brought into the hydroponic system in which the roots are dipped in the nutritive solution. Four days later, a GR24 solution (diastereo isomer no 1) is added to 1 μM in the 47 liters of nutritive solution (4.7 ml GR24 at 10 mM). In this experiment, the plants reach the stage with 3-4 nodes.
Then, the cotyledonal ramifications are removed. The ramifications at the nodes N1 and N2 are kept.
The observation is carried out seven days later after addition of GR24 in the solution.
FIG. 10 represents the internodal length measured 19 days later after the germination on treated and untreated wild plants on one hand and treated and untreated mutant plants on the other hand.
FIG. 11 represents the ramification length (ramifications 3 at node N4) measured 19 days later on treated and untreated wild plants on one hand and treated and untreated mutant plants on the other hand. The ramifications at nodes N1 and N2 have already started at the time of the addition of GR24.

Row | Structure (SMILES) | bud growth at node N4, comparison of effects [1] | bud size at N3 after decapitation of plants with buds first inhibited [2] | bud growth at N4 [3] | bud growth at N4 [4] | bud size at the node N2 (wild peas WT Térèse) | bud size at the node N3, sensitivity of buds of different ages [5] | concentration from which injection above N3 represses the growth of the bud at N5 [6] | internodal length, from internode N4-N5 ([7]; 1 μM in hydroponic solution through the roots, wild and rms1 mutant, 19 days after germination, FIG. 10) | ramification length / bud start ([7]; 1 μM in hydroponic solution through the roots, wild and rms1 mutant, measured 19 days later, FIG. 11) | internodal length, internodes N1-N2, N2-N3 and N3-N4 ([7]; 1 μM in hydroponic solution, internodes already developed before addition, FIG. 10)
1 | O=C1OC2c3ccccc3CC2/C1=C\O (stereo not drawn) [ABC] | less efficient than GR24 and sorgolactone | – | – | – | – | – | – | – | – | –
2 | CC1=CC(O/C=C2/C(=O)OC3c4ccccc4CC23)OC1=O (stereo not drawn) [GR24] | comparable effects | able to start again when the plant is decapitated | strongly repressed; also recorded: inhibit the growth of said treated buds | not repressed in a significant manner | has also an action on the growth of the buds | all sensitive to the treatment | ≥ 10 nM | has an effect only from the internode N4-N5 | induces a reduction of the ramification length | has no action
3 | CC1=C[C@H](O/C=C2/C(=O)O[C@@H]3C4=C(CCC[C@@H]4C)C[C@H]23)OC1=O [sorgolactone, Sorgolactone] | comparable effects | – | – | – | – | – | – | – | – | –
